Molecules are shown by their SMILES. Counter-ions that a name gives are not always drawn. Like-named read-outs stand apart in the source and are kept apart here.

For data set [1], the system named is primary cultures of CGN (cerebellar granule neurons). Put plainly: Toxicity and cell viability in primary cultures of CGN. The class given is cell-based, mice. As to conditions: 24 or 48 hours, Coomassie staining, absorbance at 595 nm. As to the method: (§1) b) CGN: Cerebellar granule neurons derived from wild-type or transgenic mice were obtained from 6-day old mice. The basic process was similar to the previous one: obtaining and breaking up the tissue was similar and culturing and maintaining in final media was identical. The cerebellum was broken up by treatment with trypsin-EDTA for about 15-20 min and subsequently cultured in plates treated with Poly-L-Lysine (50 micrograms/m1). The neurons were maintained in a serum-free medium, Neurobasal medium+B27 Supplement+KCl+glutamine+antibiotics.
The cell viability of different strains was studied in the presence of the compounds of the invention. […] In the toxicity assays, the cells (whether neurons or established lines) were seeded in 24-well plates and exposed to different concentrations of the drug in Dulbecco's Modified Eagle's medium (DMEM)+10% FCS or in the Neurobasal medium+B27 Supplement+KCl+glutamine+antibiotics when primary neurons were used. The treatments were stopped after 24 or 48 hours by fixing the cells with 4% paraformaldehyde for 30 minutes. The fixed cells were stained with 0.2% Coomassie Brilliant blue R-250 in 10% acetic acid/40% methanol for 1 hour at ambient temperature. […] Then it was acidified with 10% trichloroacetic acid and the number of cells was measured in an Elisa reader, with absorbance at 595 nm. […]

For data set [2], the system named is tau phosphorylation. Put plainly: Ability to modify levels of tau phosphorylation in primary culture of cerebellar granule neurons and/or brain cortex (Western Blot, Tau 1, PHF1). In kind it is cell-based, mice. As to conditions: CGN or brain cortex neurons. On the procedure:
a)—Mouse cortex neurons: brains were obtained from 16-18-day old embryos. The two hemispheres, olfactory bulbs and brain stem were separated. The meninges were removed and the cut tissue was transferred to a 50 ml flask. 10 ml HBSS without Ca without Mg (without phenol red) were added. Two further washings with 3 ml HBSS were performed and digestion was performed with Trypsin-DNase at 37° C. The suspension was broken up by passing the material through glass pipettes with different thicknesses. The cells were cut and cultured in Dulbecco's Modified Eagle's medium (DMEM)+10% FCS. After 3 hours the final medium was placed in Neurobasal medium+B27 Supplement+KCl+glutamine+antibiotics.
as §1
Ability to Modify Levels of Tau Phosphorylation in Primary Culture of Cerebellar Granule Neurons (CGN) and/or Brain Cortex Derived from Mice (Wild Strain)
The data was obtained in relation to the mean of 3 independent experiments of the relative level of tau-1 in soluble cell extracts obtained from cerebellar granule or brain cortex neurons treated with the indicated compounds. The ability to modify the level of tau phosphorylation in cortex neurons or cerebellar granule of […] was analyzed through Western Blot using specific antibodies in a series of fosfo-epitopes (Tau 1, PHF1) after 1, 2 and 3 incubation hours. Actine was used as reference (indicator of the total mass).

Data set [3] deals with cell line CHO-APP-PS1. Put plainly: Toxicity and cell viability in cultures of cell line CHO-APP-PS1. The class given is cell-based, Chinese hamster. As to the method: The cell viability of different strains was studied in the presence of the compounds of the invention. […] In the toxicity assays, the cells (whether neurons or established lines) were seeded in 24-well plates and exposed to different concentrations of the drug in Dulbecco's Modified Eagle's medium (DMEM)+10% FCS or in the Neurobasal medium+B27 Supplement+KCl+glutamine+antibiotics when primary neurons were used. The treatments were stopped after 24 or 48 hours by fixing the cells with 4% paraformaldehyde for 30 minutes. The fixed cells were stained with 0.2% Coomassie Brilliant blue R-250 in 10% acetic acid/40% methanol for 1 hour at ambient temperature. The stained cells were washed thoroughly with distilled water, and once dried the incorporated dye was extracted with 0.1 N NaOH in 50% methanol. Then it was acidified with 10% trichloroacetic acid and the number of cells was measured in an Elisa reader, with absorbance at 595 nm. DMSO (10 μl/well) was used as a control. […] The medium was collected for 6 hours, and then it was diluted 5 times and analyzed in duplicate using a Biosource ELISA kit (h 1-40 βAmyloid—Ref #KHB3482).

Where [4] appears, read: at 5 and/or 10 micromolar, relative level of tau-1.
The mark [5] stands for this setting: relative level of tau-1 in soluble cell extracts, mean of 3 experiments.

Regarding `Clc1ccc(C(Oc2cccc3ccccc23)C2CCNCC2)cc1` (racemic) [COMPOUND 31, (+/−)-4-[(Naphthalen-1-oxy)(4-chlorophenyl)methyl]piperidine hemisulphate], the “toxicity (cell viability)” value in data set [1] was “somewhat toxic only at certain concentrations”. In addition, the “ability to modify the level of tau phosphorylation” value (shortened to “ability to modify the level”) in data set [2] (setting [4]) was “modify tau phosphorylation”.

Consider `Fc1cc(COc2ccc3c(c2)OCO3)cc(OC(c2ccccc2)C2CCNCC2)c1` (racemic) [COMPOUND 32, hydrochloride], for which, in data set [2] (setting [4]), the “ability to modify the level” value was “modify tau phosphorylation”.

Turning to `NCCN1CCC(C(Oc2cccc(F)c2)c2ccccc2)CC1` (racemic) [COMPOUND 37, (+/−)-4-[(3-fluorophenoxy)phenylmetyl]piperidin-1-yl]ethylamine oxalate], the “toxicity (cell viability)” value in data set [1] is recorded as “somewhat toxic only at certain concentrations”. Also, the “ability to modify the level” value in data set [2] (setting [4]) is “modify tau phosphorylation”.

Take `Ic1cccc(OC(c2ccccc2)C2CCNCC2)c1` (stereo not drawn) [COMPOUND 3]: the “toxicity (cell viability)” value in data set [3] is “none of them giving rise to statistically relevant toxicity levels”. In data set [2] (setting [5]), the “ability to modify the level” value is listed as “modify tau phosphorylation”.

As for `Cc1ccc(Cl)cc1OC(c1ccccc1)C1CCNCC1` (stereo not drawn) [COMPOUND 10], in data set [3] (cultures of cell line CHO-APP-PS1, 24 or 48 hours, Coomassie staining, absorbance at 595 nm), the “toxicity (cell viability)” value is given as “none of them giving rise to statistically relevant toxicity levels”. Further, the “ability to modify the level” value in data set [2] (setting [5]) was “modify tau phosphorylation”.

Regarding `Fc1ccccc1OC(c1ccccc1)C1CCNCC1` (stereo not drawn) [COMPOUND 21], in data set [2] (setting [4]), the “ability to modify the level” value was “modify tau phosphorylation”.

For the molecule `Fc1ccc(OC(CC2CCNCC2)c2ccc(F)cc2)cc1` (stereo not drawn) [COMPOUND 24], the “ability to modify the level” value in data set [2] (setting [4]) is reported as “modify tau phosphorylation”.

For `Fc1ccc(OC(CC2CCNCC2)c2ccccc2)cc1` (stereo not drawn) [COMPOUND 27], the “ability to modify the level” value in data set [2] (setting [4]) is on record as “modify tau phosphorylation”.

As for `FC(F)(F)c1ccccc1OC(c1ccccc1)C1CCNCC1` (stereo not drawn) [COMPOUND 29], in data set [2] (setting [4]), the “ability to modify the level” value was “modify tau phosphorylation”.

As to `Clc1ccc(OC(c2ccccc2)C2CCNCC2)cc1Cl` (stereo not drawn) [COMPOUND 34], the “ability to modify the level” value in data set [2] (setting [4]) is “modify tau phosphorylation”.

For the molecule `c1ccc(C(Oc2cccc3ccccc23)C2CCNCC2)cc1` (stereo not drawn) [COMPOUND 35], the “ability to modify the level” value in data set [2] (setting [4]) is recorded as “modify tau phosphorylation”.

On to `Clc1ccc(/C=C(\c2ccccc2)C2CCNCC2)cc1` [COMPOUND 36, (Z)-4-[(1-phenyl)-2-(4-chlorophenyl)ethen-1-yl]piperidine], for which the “ability to modify the level” value in data set [2] (setting [4]) is recorded as “modify tau phosphorylation”.

On to `c1ccc(-c2ccccc2OC(c2ccccc2)C2CCNCC2)cc1` (stereo not drawn) [COMPOUND 40], for which, in data set [2] (setting [4]), the “ability to modify the level” value is “modify tau phosphorylation”.

Turning to `FC(F)(F)c1ccc(OC(c2ccccc2)C2CCNCC2)cc1` (stereo not drawn) [COMPOUND 41], the “ability to modify the level” value in data set [2] (setting [4]) is given as “modify tau phosphorylation”.

(Values after US20130131079A1, “FLUFENOXINE DERIVATIVES FOR THE TREATMENT AND PREVENTION OF AMYLOID PATHOLOGIES” (FAES FARMA, S.A., priority 2010, published 2013).)
